From patent US10815204B2, “Process for the preparation of diphenylpyrazine derivatives” (HONOUR (R&D), priority 2016, dated 2020)

Key:
Type in all cases: physicochemical
[1] = Stability of Selexipag amorphous form on storage, solid form by PXRD
Method: X-ray powder diffraction spectrum was measured on a bruker axs D8 advance X-ray powder diffractometer having a copper-a radiation. Adequate sample was gently flattered on a sample holder and scanned from 2 to 50 degrees two-theta, at 0.02 increment and scan speed of 0.2 Sec/Step. The sample was simply placed on the sample holder. The sample was rotated at 30 rpm at a voltage 40 KV and current 35 mA. In another aspect of the present invention, Selexipag amorphous form is stable at 5±3° C. and 25±2° C./RH (Relative humidity) 60±5%, 40±2° C./RH (Relative humidity) 75±5% and has the following stability data: […]

[2] = Stability of Selexipag amorphous form on storage, Chromatographic Purity (by HPLC)
Method: (§1) In another aspect of the present invention, Selexipag amorphous form is stable at 5±3° C. and 25±2° C./RH (Relative humidity) 60±5%, 40±2° C./RH (Relative humidity) 75±5% and has the following stability data: […]

[3] = Storage stability of Selexipag amorphous form (statement); settings: at 5±3° C. and 25±2° C./RH 60±5%, 40±2° C./RH 75±5%
Method: as §1

[4] = 25 ± 2° C./RH 60 ± 5%, 1st month
[5] = 25 ± 2° C./RH 60 ± 5%, 2nd Month
[6] = 25 ± 2° C./RH 60 ± 5%, 3rd Month
[7] = 25 ± 2° C./RH 60 ± 5%, 4th Month
[8] = 25 ± 2° C./RH 60 ± 5%, 5th Month
[9] = 40 ± 2° C./RH 75 ± 5%, 1st month
[10] = 40 ± 2° C./RH 75 ± 5%, 2nd Month
[11] = 40 ± 2° C./RH 75 ± 5%, 3rd Month

Compound: CC(C)N(CCCCOCC(=O)NS(C)(=O)=O)c1cnc(-c2ccccc2)c(-c2ccccc2)n1 [Selexipag amorphous form, 2-{4-[(5,6-diphenylpyrazin-2-yl)(isopropyl)amino]butoxy}-N-(methylsulfonyl)acetamide]
- PXRD ([1]; 5 ± 3° C., 1st month): Amorphous
- PXRD ([1]; 5 ± 3° C., 2nd Month): Amorphous
- PXRD ([1]; 5 ± 3° C., 3rd Month): Amorphous
- PXRD ([1]; 5 ± 3° C., 4th Month): Amorphous
- PXRD ([1]; 5 ± 3° C., 5th Month): Amorphous
- PXRD ([1]; 5 ± 3° C., 6th Month): Amorphous
- PXRD ([1]; 5 ± 3° C., Initial): Amorphous
- PXRD [1, 4]: Amorphous
- PXRD [1, 5]: Amorphous
- PXRD [1, 6]: Amorphous
- PXRD [1, 7]: Amorphous
- PXRD [1, 8]: Amorphous
- PXRD ([1]; 25 ± 2° C./RH 60 ± 5%, Initial): Amorphous
- PXRD [1, 9]: Amorphous
- PXRD [1, 10]: Amorphous
- PXRD [1, 11]: Amorphous
- PXRD ([1]; 40 ± 2° C./RH 75 ± 5%, Initial): Amorphous
- Chromatographic Purity (by HPLC) ([2]; 5 ± 3° C., 1st month): 99.63
- Chromatographic Purity (by HPLC) ([2]; 5 ± 3° C., 2nd Month): 99.66
- Chromatographic Purity (by HPLC) ([2]; 5 ± 3° C., 3rd Month): 99.76
- Chromatographic Purity (by HPLC) ([2]; 5 ± 3° C., 4th Month): 99.76
- Chromatographic Purity (by HPLC) ([2]; 5 ± 3° C., 5th Month): 99.70
- Chromatographic Purity (by HPLC) ([2]; 5 ± 3° C., 6th Month): 99.76
- Chromatographic Purity (by HPLC) ([2]; 5 ± 3° C., Initial): 99.63
- Chromatographic Purity (by HPLC) [2, 4]: 99.63
- Chromatographic Purity (by HPLC) [2, 5]: 99.59
- Chromatographic Purity (by HPLC) [2, 6]: 99.72
- Chromatographic Purity (by HPLC) [2, 7]: 99.78
- Chromatographic Purity (by HPLC) [2, 8]: 99.69
- Chromatographic Purity (by HPLC) ([2]; 25 ± 2° C./RH 60 ± 5%, 6th Month): 99.68
- Chromatographic Purity (by HPLC) ([2]; 25 ± 2° C./RH 60 ± 5%, Initial): 99.63
- Chromatographic Purity (by HPLC) [2, 9]: 99.62
- Chromatographic Purity (by HPLC) [2, 10]: 99.58
- Chromatographic Purity (by HPLC) [2, 11]: 99.66
- Chromatographic Purity (by HPLC) ([2]; 40 ± 2° C./RH 75 ± 5%, 4th Month): 99.69
- Chromatographic Purity (by HPLC) ([2]; 40 ± 2° C./RH 75 ± 5%, 5th Month): 99.66
- Chromatographic Purity (by HPLC) ([2]; 40 ± 2° C./RH 75 ± 5%, 6th Month): 99.65
- Chromatographic Purity (by HPLC) ([2]; 40 ± 2° C./RH 75 ± 5%, Initial): 99.63
- stability on storage [3]: stable
